By Kd is commonly meant the free concentration of one partner at which half of the binding sites on the other are occupied at equilibrium, for simple one-to-one binding.

The target of experiment [1] is T1, talin R3 domain (residues 787–911) (Mus musculus, UniProt P26039).
T1 construct: recombinant talin R3 domain (residues 787–911); hexahistidine-tag followed by TEV protease cleavage site (N); made in house; host or cells: E. coli BL21
Briefly: ITC, tensin3 TBS peptide binding to talin R3. The note with it: ITC 25°C, pH 6.5; mean ± SD from triplicate measurements. The source says:
(§1) Figure 3. Structural characterization of the multidomain talin–tensin3 interaction. (A) Representative images of NIH3T3 cells co-expressing GFP-R11DD-cBAK WT or carrying K2024E, K2031E, or both (K2024E+K2031E) with mCh-IDR. (B) Mitochondrial pulldown experiment using the same constructs as in A. (C) AlphaFold3 model of the talin R8–tensin3 TBS complex. TBS (orange) was predicted to engage the α2-α3 face of the R8 bundle (cyan). K1500 and R1510 (brown) are highlighted on the […]. (D) NIH3T3 cells co-expressing GFP-R7R8-cBAK WT or carrying K1500E or R1510E with mCh-IDR. (E) Mitochondrial pulldown experiment using constructs as in D. (F) Cells co-expressing mCh-TNS3-WT-cBAK and GFP-TLN1 constructs (R8m, K1500E; R11m, K2024E+K2031E). mCh-TNS3-L702E-cBAK was used as a negative control. (G and H) Overlay ^1H-^15N HSQC spectra of ^15N-labeled talin R3 (G) and talin R4 (H), at a concentration of 200 µM, in the absence (blue) and presence (red) of tensin3 TBS peptide at a molar ratio of 1:2. Magnified views in the right panels show the cross-peaks corresponding to the residues K869 and V871 of talin R3 (G) and the residues S927 and G969 of talin R4 (H), illustrating the progressive chemical shift changes at peptide molar ratios of 0 (blue), 0.25 (orange), 0.5 (green), 1.0 (coral), and 2.0 (red). The HSQC spectra of R3 and R4 were recorded at 700 and 800 MHz, respectively. (I and J) Mapping of the residue-specific CSD (related to Fig. S2, H and I) on the AlphaFold3 models of talin R3 (I) and R4 (J) colored in cyan, respectively, in complex with tensin3 TBS (orange). […]
(§2) Recombinant mouse talin1 R3 and R7R8 domains were expressed using the pET-151/D-TOPO vector. […] Final protein concentrations were determined by measuring absorbance at 280 nm using a NanoDrop spectrophotometer (Thermo Fisher Scientific), based on calculated extinction coefficients.
(§3) ITC experiments were performed using a MicroCal PEAQ-ITC automated instrument (Malvern Panalytical) at 25°C. […] Data were analyzed using the one-site binding model implemented in MicroCal PEAQ-ITC analysis software (Malvern Panalytical).

Experiment [2] has as its target T2, talin R7R8 region (residues 1,359–1,659) (Mus musculus, UniProt P26039).
T2 construct: R7R8 region (residues 1,359–1,659); hexahistidine-tag followed by TEV protease cleavage site (N); made in house; host or cells: E. coli BL21
Briefly: ITC, tensin3 TBS peptide binding to talin R7R8. To be noted: ITC 25°C, pH 6.5; mean ± SD from triplicate measurements.
Description: as §1, §2, §3
On the technique in general: In ITC the heat of successive injections is recorded.

Experiment [3] deals with T3, talin R4 domain (residues 913–1,044) (Mus musculus, UniProt P26039).
T3 construct: R4 domain (residues 913–1,044); hexahistidine-tag followed by TEV protease cleavage site (N); made in house; host or cells: E. coli BL21
T3 sequence (P26039 913-1044 limits assumed): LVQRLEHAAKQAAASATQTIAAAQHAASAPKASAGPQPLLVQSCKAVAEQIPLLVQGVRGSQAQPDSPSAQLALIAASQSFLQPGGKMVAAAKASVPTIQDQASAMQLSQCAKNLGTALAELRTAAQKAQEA
Kind of experiment: 1H-15N HSQC NMR titration of talin R4. The experiment is classed as binding. On the procedure: (§4) Recombinant mouse talin1 R3 and R7R8 domains were expressed using the pET-151/D-TOPO vector. The recombinant mouse talin R4 domain was expressed using the pET-28a(+)vectors. Both vectors include an N-terminal hexahistidine-tag followed by a tobacco etch virus protease cleavage site. Proteins were overexpressed in BL21 cells and purified via nickel-affinity chromatography with a single-step elution at 250 mM imidazole concentration. For NMR studies, uniformly ^15N-labeled proteins were produced by growing cells in 2xM9 minimal medium supplemented with 1 g/Liter ^15N-ammonium chloride (^15NH4Cl) as the sole nitrogen source. Following purification, proteins were concentrated and buffer-exchanged using PD-10 desalting columns (Cytiva). Final protein concentrations were determined by measuring absorbance at 280 nm using a NanoDrop spectrophotometer (Thermo Fisher Scientific), based on calculated extinction coefficients.
(§5) NMR spectra were acquired on Bruker Neo 700 MHz (for talin R3) or 800 MHz (for talin R4 and R7R8) spectrometers equipped with TCI cryoprobes. All experiments were performed at 298 K using 200 µM of uniformly ^15N-labeled talin R3, R4, or R7R8 in 20 mM sodium phosphate buffer (pH 6.4) containing 50 mM NaCl, 0.1 mM tris(2-carboxyethyl)phosphine (TCEP), and 5% (vol/vol) D2O. For titration experiments, synthetic tensin3 TBS peptide (aa 692–718) was added at final concentrations of 50, 100, 200, 400, and 800 µM. NMR data were processed using TopSpin (Bruker) and analyzed with Collaborative Computational Project for NMR software AnalysisAssign (version 3.2). HSQC spectra were measured using a standard Bruker pulse sequence. HSQC signals of the free proteins were assigned using the available backbone chemical shift data from the Biological Magnetic Resonance Data Bank (BMRB entries; R3: 17332; R4: 18313). The signals of the bound state were assigned by following the chemical shift changes with the increased concentrations of the peptide. Residue-specific chemical shift differences were calculated using HSQC spectra in the presence of 400 µM tensin3 TBS peptide.

Experiment [4] has as its target T3, talin R4 domain (residues 913–1,044). Kind of experiment: ITC, tensin3 TBS peptide binding to talin R4. To be noted: ITC 25°C, pH 6.5; mean ± SD from triplicate measurements.
Description: as §1, §2, §3

The target in experiment [5] is T1, talin R3 domain (residues 787–911). Briefly: 1H-15N HSQC NMR titration of talin R3. The experiment is classed as binding. The protocol: as §4, §5
Experiment [6] addresses talin R11. The note with it: previous observation; ref Atherton et al., 2022; read-out: Kd, talin R11 with tensin3 TBS; cited from earlier work.
For experiment [7], the target named is T2, talin R7R8 region (residues 1,359–1,659). Briefly: 1H-15N HSQC NMR titration of talin R7R8. The class given is binding. The note with it: intermediate exchange. The protocol:
as §4, with “Following purification, proteins were concentrated and buffer-exchanged using PD-10 desalting columns (Cytiva).” left out
NMR spectra were acquired on Bruker Neo 700 MHz (for talin R3) or 800 MHz (for talin R4 and R7R8) spectrometers equipped with TCI cryoprobes. […] NMR data were processed using TopSpin (Bruker) and analyzed with Collaborative Computational Project for NMR software AnalysisAssign (version 3.2). HSQC spectra were measured using a standard Bruker pulse sequence. […] Residue-specific chemical shift differences were calculated using HSQC spectra in the presence of 400 µM tensin3 TBS peptide.

Setting [8] is: 1:2 molar ratio (400 µM TBS peptide), threshold 5× SD.

Structures are written as SMILES. “And” between values parts separate entries of the source, which are not always exact repeats. Equal entries are not always repeated. Where a SMILES comes first, the peptide text is derived from it.

T2 sequence (P26039 1359-1659 limits assumed): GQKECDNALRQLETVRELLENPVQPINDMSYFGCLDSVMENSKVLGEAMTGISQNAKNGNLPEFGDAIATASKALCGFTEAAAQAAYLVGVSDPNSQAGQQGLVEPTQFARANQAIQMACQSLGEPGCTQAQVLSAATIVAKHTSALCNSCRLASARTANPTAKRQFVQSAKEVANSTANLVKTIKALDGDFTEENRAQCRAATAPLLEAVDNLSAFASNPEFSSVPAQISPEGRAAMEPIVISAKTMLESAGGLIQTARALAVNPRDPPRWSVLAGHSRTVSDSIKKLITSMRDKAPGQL
T1 sequence (P26039 787-911): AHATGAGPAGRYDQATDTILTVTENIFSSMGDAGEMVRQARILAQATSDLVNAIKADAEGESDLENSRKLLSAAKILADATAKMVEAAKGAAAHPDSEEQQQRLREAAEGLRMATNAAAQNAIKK

Turning to `CC[C@H](C)[C@H](NC(=O)[C@H](CO)NC(=O)[C@H](CCC(N)=O)NC(=O)[C@H](CC(=O)O)NC(=O)[C@@H](NC(=O)[C@H](CC(=O)O)NC(=O)[C@H](CC(C)C)NC(=O)[C@@H](N)[C@@H](C)O)[C@@H](C)CC)C(=O)N[C@@H](CCC(=O)O)C(=O)N[C@@H](CCC(N)=O)C(=O)N[C@@H](CC(C)C)C(=O)N[C@@H](CC(N)=O)C(=O)N[C@@H](CCCNC(=N)N)C(=O)N[C@@H](CC(C)C)C(=O)N[C@H](C(=O)N[C@@H](CC(C)C)C(=O)N[C@@H](CCC(=O)O)C(=O)N[C@@H](CC(C)C)C(=O)N[C@@H](CC(=O)O)C(=O)N1CCC[C@H]1C(=O)N[C@H](C(=O)N[C@@H](Cc1ccccc1)C(=O)N[C@@H](CCC(=O)O)C(=O)N1CCC[C@H]1C(=O)N[C@H](C(=O)N1CCC[C@H]1C(=O)N[C@H](C(=O)O)[C@@H](C)O)[C@@H](C)CC)[C@@H](C)O)[C@@H](C)CC` [tensin3 TBS] (H-TLDIDQSIEQLNRLILELDPTFEPIPT-OH; N-terminus and C-terminus assumed), in experiment [1], the “Gibbs free energy (ΔG), R3-TBS” value is -6.41 ± 0.0478 kcal/mol; the “enthalpy change (ΔH), R3-TBS” value was 1.68 ± 0.148 kcal/mol and 1.68 ± 0.14 kcal/mol; the “entropy contribution (−TΔS), R3-TBS” value is -8.08 ± 0.0956 kcal/mol. In experiment [2], the “Gibbs free energy (ΔG), R7R8-TBS” value is -6.549 ± 0.0406 kcal/mol; the “enthalpy change (ΔH), R7R8-TBS” value stood at 10.21 ± 0.492 kcal/mol; the “entropy contribution (−TΔS), R7R8-TBS” value was -16.75 ± 0.464 kcal/mol. Besides, the “HSQC spectral changes on addition of TBS, R4” value in experiment [3] (200 µM 15N-talin R4, 298 K, 20 mM sodium phosphate pH 6.4, 50 mM NaCl, 0.1 mM TCEP, 5% D2O, 800 MHz, molar ratio up to 1:2) is given as “substantial changes”. Also, the “location of significant chemical shift perturbations, R4” value in experiment [3] (setting [8]) is “α1 and α2 helices of R4”. The “Kd range suggested by exchange rate in NMR, R4” value in experiment [3] (intermediate exchange) is reported as “micromolar (µM) range”. For the same compound, in experiment [4], the “Gibbs free energy (ΔG), R4-TBS” value was -6.29 ± 0.086 kcal/mol; the “enthalpy change (ΔH), R4-TBS” value is 2.94 ± 0.586 kcal/mol and 2.94 ± 0.574 kcal/mol; the “entropy contribution (−TΔS), R4-TBS” value is -9.32 ± 0.626 kcal/mol. Besides, the “HSQC spectral changes on addition of TBS, R3” value in experiment [5] (200 µM 15N-talin R3, 298 K, 20 mM sodium phosphate pH 6.4, 50 mM NaCl, 0.1 mM TCEP, 5% D2O, 700 MHz, molar ratio up to 1:2) is “substantial changes”. For the same compound, the “location of significant chemical shift perturbations, R3” value in experiment [5] (setting [8]) was “α2 and α3 helices of R3”. Moreover, in experiment [5] (intermediate exchange), the “Kd range suggested by exchange rate in NMR, R3” value is recorded as “micromolar (µM) range”. In addition, in experiment [6], the Kd is 17 µM. Moreover, the “Kd range suggested by exchange rate in NMR, R7R8” value in experiment [7] is listed as “micromolar (µM) range”.

Source of the values: article PMC12637021, “Talin–tensin3 interactions regulate fibrillar adhesion formation and tensin3 phase separation” (The Journal of Cell Biology, 2025).
